Consider 9 compounds from PubChem BioAssay (NCI).

Among the test systems are A549 NSCLC; CCRF-CEM leukemia; HCT-15 colon; HS 578T breast; MCF7 breast; SK-MEL-2 melanoma; SNB-19 CNS; SNB-75 CNS; SW-620 colon; T-47D breast.
Holding throughout (experiment): DTP human tumour cell line panel, 48 h

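Step 1: Grow cells in 96-well plates. Step 2: Expose to compound for 48 hours at 5 concentrations. Step 3: Interpolate endpoints linearly; if unreached, use highest concentration. At the GI50, growth is halved. TGI marks complete inhibition of growth.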

A word on the GI50: it is the concentration at which growth is held to half of that of the control. One may read the TGI as the concentration giving total growth inhibition. A low value points to more potent growth arrest. For the compound `Cc1cc(S(=O)(=O)/N=C(\N)n2nc(C)c(C)c2C)c(SCc2ccccc2)cc1Cl`, the GI50 in the experiment on A549 NSCLC is 14 µM; in the experiment on CCRF-CEM leukemia it was 4.49 µM; with HCT-15 colon, 7.1 µM; with HS 578T breast, greater than 100 µM; with MCF7 breast, 5.12 µM; in the experiment on SK-MEL-2 melanoma, greater than 100 µM. Also, the GI50 is greater than 100 µM with SNB-19 CNS, greater than 100 µM in the experiment with SNB-75 CNS, 72.7 µM in the experiment with SW-620 colon and 3.14 µM in the experiment with T-47D breast. The TGI in the experiment on A549 NSCLC, with CCRF-CEM leukemia, in the experiment with HCT-15 colon, in the experiment on HS 578T breast, in the experiment with MCF7 breast and in the experiment with SK-MEL-2 melanoma was greater than 100 µM each time. Further, the TGI in the experiment with SNB-19 CNS, in the experiment on SNB-75 CNS, in the experiment with SW-620 colon and with T-47D breast was greater than 100 µM each time.

Take `O=C1OC2(c3ccccc31)c1cc(I)c(O)c(I)c1Oc1c2cc(I)c(O)c1I`: the TGI with A549 NSCLC, with CCRF-CEM leukemia, with HCT-15 colon, in the experiment on HS 578T breast, with MCF7 breast and with SK-MEL-2 melanoma was greater than 100 µM each time. The TGI in the experiment with SNB-19 CNS, in the experiment with SNB-75 CNS, in the experiment on SW-620 colon and in the experiment on T-47D breast was greater than 100 µM each time.

On to `CC1(C)CC2=NOS3=C2C(=NO3)C1c1ccccn1` (stereo not given), for which the TGI with A549 NSCLC is greater than 100 µM; in the experiment on CCRF-CEM leukemia it was 78.4 µM; in the experiment with HCT-15 colon it was greater than 100 µM; in the experiment with HS 578T breast, greater than 100 µM; in the experiment with MCF7 breast, greater than 100 µM; with SK-MEL-2 melanoma, greater than 100 µM. The TGI with SNB-19 CNS, in the experiment with SNB-75 CNS, in the experiment on SW-620 colon and in the experiment with T-47D breast was greater than 100 µM throughout.

Take `Cc1cc(Nc2nc(N3CCOCC3)nc3ccccc23)n[nH]1`: the GI50 in the experiment on A549 NSCLC was 5.2 µM; in the experiment with CCRF-CEM leukemia, 4.03 µM; in the experiment on HCT-15 colon, 3.54 µM; in the experiment on HS 578T breast it was 1.44 µM; with MCF7 breast, 9.7 µM; with SK-MEL-2 melanoma it was 5.2 µM. Also, the GI50 in the experiment with SNB-19 CNS is 26 µM; with SNB-75 CNS, 1.55 µM; in the experiment with SW-620 colon it was 4.81 µM; with T-47D breast, 9.63 µM. For the same compound, the TGI in the experiment on A549 NSCLC is greater than 100 µM; with CCRF-CEM leukemia, greater than 100 µM; in the experiment with HCT-15 colon, greater than 100 µM; with HS 578T breast it was 4.78 µM; in the experiment on MCF7 breast it was greater than 100 µM; with SK-MEL-2 melanoma it was greater than 100 µM. The total growth inhibition concentration (TGI) is greater than 100 µM in the experiment on SNB-19 CNS, 7.49 µM in the experiment with SNB-75 CNS, 56.8 µM in the experiment with SW-620 colon and greater than 100 µM in the experiment with T-47D breast.

`O=C(CCc1ccc(O)c(O)c1)c1ccc(O)c(O)c1O`: the TGI with A549 NSCLC was greater than 100 µM; in the experiment with CCRF-CEM leukemia, 47.3 µM; in the experiment with HCT-15 colon, 33 µM; in the experiment with HS 578T breast, greater than 100 µM; in the experiment with MCF7 breast, 42 µM; with SK-MEL-2 melanoma it was greater than 100 µM. In addition, the TGI was greater than 100 µM in the experiment on SNB-19 CNS, greater than 100 µM with SNB-75 CNS, greater than 100 µM in the experiment on SW-620 colon and 66.3 µM in the experiment on T-47D breast.

As for `COc1ccc2c(c1)C(=O)c1c-2c(N2CCN(C(=O)CN(C)C)CC2)nc2ccccc12`, the GI50 in the experiment with A549 NSCLC was 13.8 µM; in the experiment with CCRF-CEM leukemia, 10.7 µM; with HCT-15 colon it was 14.4 µM; in the experiment with HS 578T breast it was 11.6 µM; in the experiment on MCF7 breast, 12.3 µM; in the experiment with SK-MEL-2 melanoma, 18.4 µM. Further, the GI50 with SNB-19 CNS was 16.6 µM; with SNB-75 CNS, 11.8 µM; in the experiment on SW-620 colon, 10.3 µM; in the experiment with T-47D breast, 16.2 µM. In addition, the TGI with A549 NSCLC was 37 µM; with CCRF-CEM leukemia, 27.1 µM; in the experiment with HCT-15 colon, 32.3 µM; in the experiment with HS 578T breast, 31.9 µM; in the experiment with MCF7 breast, 27.6 µM; in the experiment on SK-MEL-2 melanoma, 39 µM. Besides, the TGI amounted to 35.9 µM in the experiment with SNB-19 CNS, 27.7 µM in the experiment with SNB-75 CNS, 26.3 µM in the experiment with SW-620 colon and 34.1 µM in the experiment on T-47D breast.

Take `Nc1c(C(=O)Nc2cccc3ccccc23)sc2nc3c(cc12)CCCCC3`: the GI50 in the experiment on A549 NSCLC is 1.9 µM; in the experiment with CCRF-CEM leukemia it was 0.692 µM; with HCT-15 colon, 0.309 µM; with HS 578T breast, 0.35 µM; in the experiment on MCF7 breast, 0.168 µM; in the experiment with SK-MEL-2 melanoma, greater than 50 µM. Also, the GI50 in the experiment with SNB-19 CNS was 0.662 µM; in the experiment with SNB-75 CNS, 0.161 µM; in the experiment with SW-620 colon, 0.538 µM; in the experiment with T-47D breast, 5.94 µM. For the same compound, the TGI in the experiment with A549 NSCLC, in the experiment with CCRF-CEM leukemia, in the experiment with HCT-15 colon, in the experiment with HS 578T breast, with MCF7 breast and in the experiment with SK-MEL-2 melanoma was greater than 50 µM in each case. For the same compound, the TGI in the experiment with SNB-19 CNS, with SNB-75 CNS, in the experiment with SW-620 colon and in the experiment on T-47D breast was greater than 50 µM in each case.

For `Cc1c(N(C(=O)c2cc(-c3cc(Cl)ccc3C(=O)N3Cc4ccccc4C[C@H]3CN3CCOCC3)n(C)c2C)c2ccc(O)cc2)cc(C#N)n1C`, the GI50 in the experiment on A549 NSCLC is 27.6 µM; with CCRF-CEM leukemia, 8.02 µM; in the experiment on HCT-15 colon it was 16.6 µM; with HS 578T breast, 19 µM; in the experiment on MCF7 breast, 23.5 µM; in the experiment on SK-MEL-2 melanoma it was 11.8 µM. Besides, the GI50 with SNB-19 CNS was 13.8 µM; with SNB-75 CNS, 9.79 µM; in the experiment on SW-620 colon, 34.4 µM; with T-47D breast it was 7.09 µM. The TGI in the experiment with A549 NSCLC is greater than 100 µM; in the experiment on CCRF-CEM leukemia, greater than 100 µM; with HCT-15 colon, greater than 100 µM; in the experiment with HS 578T breast it was 75.3 µM; in the experiment on MCF7 breast, greater than 100 µM; in the experiment with SK-MEL-2 melanoma it was 30.7 µM. For the same compound, the TGI was greater than 100 µM with SNB-19 CNS, 30.9 µM with SNB-75 CNS, greater than 100 µM in the experiment with SW-620 colon and greater than 100 µM with T-47D breast.

For `C=C1C(=O)O[C@H]2[C@H]1CC/C(COC(=O)NCCc1c[nH]c3ccccc13)=C\CC[C@@]1(C)O[C@@H]21`, the GI50 in the experiment on A549 NSCLC was 10.7 µM; in the experiment on CCRF-CEM leukemia it was 0.362 µM; in the experiment with HCT-15 colon, 1.23 µM; with HS 578T breast, 10.3 µM; in the experiment on MCF7 breast it was 0.585 µM; in the experiment on SK-MEL-2 melanoma it was 5.53 µM. Further, the GI50 with SNB-19 CNS is 6.46 µM; with SNB-75 CNS, 8.45 µM; with SW-620 colon it was 1.2 µM; with T-47D breast, 1.7 µM. In addition, the TGI in the experiment with A549 NSCLC was 25.4 µM; in the experiment on CCRF-CEM leukemia, 3.57 µM; in the experiment on HCT-15 colon, 2.81 µM; in the experiment on HS 578T breast, 38.4 µM; with MCF7 breast, 2.26 µM; with SK-MEL-2 melanoma, 20.1 µM. For the same compound, the TGI with SNB-19 CNS stood at 20.2 µM; in the experiment on SNB-75 CNS it was 21.8 µM; with SW-620 colon it was 2.81 µM; with T-47D breast it was 4.41 µM.
